Experimental data from article PMC10408569, “Recruitment of hexahydroquinoline as anticancer scaffold targeting inhibition of wild and mutants EGFR (EGFR^WT, EGFR^T790M, and EGFR^L858R)” (Journal of Enzyme Inhibition and Medicinal Chemistry, 2023).

Key:
A549/ATCC = assay: NCI-60 anticancer screening (SRB); format: cell-based; conditions: Homo sapiens; A549/ATCC, NSC lung cancer; one dose 10 μM; read-out: Growth Inhibition Percentage (GI %)
IGROV1 = assay: NCI-60 anticancer screening (SRB); format: cell-based; conditions: Homo sapiens, IGROV-1; IGROV1, ovarian cancer; one dose 10 μM; read-out: Growth Inhibition Percentage (GI %)
HCC-2998 = assay: NCI-60 anticancer screening (SRB); format: cell-based; conditions: Homo sapiens; HCC-2998, colon cancer; one dose 10 μM; read-out: Growth Inhibition Percentage (GI %)
EKVX = assay: NCI-60 anticancer screening (SRB); format: cell-based; conditions: Homo sapiens, NSC lung cancer, one dose 10 μM, read-out: Growth Inhibition Percentage (GI %)
NCI 60 cancer cell lines = assay: NCI-60 anticancer screening (SRB), whole panel; format: cell-based, human; conditions: mean across the NCI-60 panel; one dose 10 μM
DU-145 = assay: NCI-60 anticancer screening (SRB); format: cell-based; conditions: Homo sapiens; DU-145, prostate cancer; one dose 10 μM; read-out: Growth Inhibition Percentage (GI %)
UO-31 = assay: NCI-60 anticancer screening (SRB); format: cell-based; conditions: Homo sapiens; UO-31, renal cancer; one dose 10 μM; read-out: Growth Inhibition Percentage (GI %)
CAKI-1 = assay: NCI-60 anticancer screening (SRB); format: cell-based; conditions: Homo sapiens; CAKI-1, renal cancer; one dose 10 μM; read-out: Growth Inhibition Percentage (GI %)
HCT-15 = assay: NCI-60 anticancer screening (SRB); format: cell-based; conditions: Homo sapiens; HCT-15, colon cancer; one dose 10 μM; read-out: Growth Inhibition Percentage (GI %)
NCI-H322M = assay: NCI-60 anticancer screening (SRB); format: cell-based; conditions: Homo sapiens, NSC lung cancer, one dose 10 μM, read-out: Growth Inhibition Percentage (GI %)
SK-MEL-2 = assay: NCI-60 anticancer screening (SRB); format: cell-based; conditions: Homo sapiens; SK-MEL-2, melanoma; one dose 10 μM; read-out: Growth Inhibition Percentage (GI %)
MALME-3M = assay: NCI-60 anticancer screening (SRB); format: cell-based; conditions: Homo sapiens, melanoma, one dose 10 μM, read-out: Growth Inhibition Percentage (GI %)
SNB-19 = assay: NCI-60 anticancer screening (SRB); format: cell-based; conditions: Homo sapiens; SNB-19, CNS cancer; one dose 10 μM; read-out: Growth Inhibition Percentage (GI %)
NCI-H226 = assay: NCI-60 anticancer screening (SRB); format: cell-based; conditions: Homo sapiens; NCI-H226, NSC lung cancer; one dose 10 μM; read-out: Growth Inhibition Percentage (GI %)
COLO 205 = assay: NCI-60 anticancer screening (SRB); format: cell-based; conditions: Homo sapiens; COLO 205, colon cancer; one dose 10 μM; read-out: Growth Inhibition Percentage (GI %)
NCI/ADR-RES = assay: NCI-60 anticancer screening (SRB); format: cell-based; conditions: Homo sapiens, ovarian cancer, one dose 10 μM, read-out: Growth Inhibition Percentage (GI %)
SNB-75 = assay: NCI-60 anticancer screening (SRB); format: cell-based; conditions: Homo sapiens; SNB-75, CNS cancer; one dose 10 μM; read-out: Growth Inhibition Percentage (GI %)
U251 = assay: NCI-60 anticancer screening (SRB); format: cell-based; conditions: Homo sapiens, U-251; U251, CNS cancer; one dose 10 μM; read-out: Growth Inhibition Percentage (GI %)
BT-549 = assay: NCI-60 anticancer screening (SRB); format: cell-based; conditions: Homo sapiens; BT-549, breast cancer; one dose 10 μM; read-out: Growth Inhibition Percentage (GI %)
HOP-62 = assay: NCI-60 anticancer screening (SRB); format: cell-based; conditions: Homo sapiens; HOP-62, NSC lung cancer; one dose 10 μM; read-out: Growth Inhibition Percentage (GI %)
MDA-MB-435 = assay: NCI-60 anticancer screening (SRB); format: cell-based; conditions: Homo sapiens; MDA-MB-435, melanoma; one dose 10 μM; read-out: Growth Inhibition Percentage (GI %)
786-0 = assay: NCI-60 anticancer screening (SRB); format: cell-based; conditions: Homo sapiens; 786-0, renal cancer; one dose 10 μM; read-out: Growth Inhibition Percentage (GI %)
UACC-257 = assay: NCI-60 anticancer screening (SRB); format: cell-based; conditions: Homo sapiens; UACC-257, melanoma; one dose 10 μM; read-out: Growth Inhibition Percentage (GI %)
HL-60(TB) = assay: NCI-60 anticancer screening (SRB); format: cell-based; conditions: Homo sapiens, leukemia, one dose 10 μM, read-out: Growth Inhibition Percentage (GI %)
OVCAR-8 = assay: NCI-60 anticancer screening (SRB); format: cell-based; conditions: Homo sapiens; OVCAR-8, ovarian cancer; one dose 10 μM; read-out: Growth Inhibition Percentage (GI %)
MDA-MB-231 = assay: NCI-60 anticancer screening (SRB); format: cell-based; conditions: Homo sapiens; MDA-MB-231, breast cancer; one dose 10 μM; read-out: Growth Inhibition Percentage (GI %)
MDA-MB-468 = assay: NCI-60 anticancer screening (SRB); format: cell-based; conditions: Homo sapiens; MDA-MB-468, breast cancer; one dose 10 μM; read-out: Growth Inhibition Percentage (GI %)
MOLT-4 = assay: NCI-60 anticancer screening (SRB); format: cell-based; conditions: Homo sapiens; MOLT-4, leukemia; one dose 10 μM; read-out: Growth Inhibition Percentage (GI %)
KM 12 = assay: NCI-60 anticancer screening (SRB); format: cell-based; conditions: Homo sapiens, KM12; KM 12, colon cancer; one dose 10 μM; read-out: Growth Inhibition Percentage (GI %)
OVCAR-5 = assay: NCI-60 anticancer screening (SRB); format: cell-based; conditions: Homo sapiens; OVCAR-5, ovarian cancer; one dose 10 μM; read-out: Growth Inhibition Percentage (GI %)
OVCAR-3 = assay: NCI-60 anticancer screening (SRB); format: cell-based; conditions: Homo sapiens; OVCAR-3, ovarian cancer; one dose 10 μM; read-out: Growth Inhibition Percentage (GI %)
NCI-H522 = assay: NCI-60 anticancer screening (SRB); format: cell-based; conditions: Homo sapiens; NCI-H522, NSC lung cancer; one dose 10 μM; read-out: Growth Inhibition Percentage (GI %)

Row | SMILES | inhibition at 10 µM (A549/ATCC) [%] | inhibition at 10 µM (IGROV1) [%] | inhibition at 10 µM (HCC-2998) [%] | inhibition at 10 µM (EKVX) [%] | GI % mean (NCI 60 cancer cell lines) | inhibition at 10 µM (DU-145) [%] | inhibition at 10 µM (UO-31) [%] | inhibition at 10 µM (CAKI-1) [%] | inhibition at 10 µM (HCT-15) [%] | inhibition at 10 µM (NCI-H322M) [%] | inhibition at 10 µM (SK-MEL-2) [%] | inhibition at 10 µM (MALME-3M) [%] | inhibition at 10 µM (SNB-19) [%] | inhibition at 10 µM (NCI-H226) [%] | inhibition at 10 µM (COLO 205) [%] | inhibition at 10 µM (NCI/ADR-RES) [%] | inhibition at 10 µM (SNB-75) [%] | inhibition at 10 µM (U251) [%] | inhibition at 10 µM (BT-549) [%] | inhibition at 10 µM (HOP-62) [%] | also measured
1 | CCOC(=O)C1=C(N)N(c2ccc(Cl)cc2)C2=C(C(=O)CC(C)(C)C2)C1c1ccc(OC)cc1 (racemic) [8h, (±)-Ethyl 2-amino-1–(4-chlorophenyl)-4–(4-methoxyphenyl)-7,7-dimethyl-5-oxo-1,4,5,6,7,8-hexahydroquinoline-3-carboxylate] | < 10 | < 10 | < 10 | < 10 | - ((-) = GI % mean less than 10) | < 10 | < 10 | < 10 | < 10 | < 10 | < 10 | < 10 | < 10 | < 10 | < 10 | < 10 | < 10 | < 10 | 25 | < 10 | inhibition at 10 µM (MDA-MB-435): < 10%; inhibition at 10 µM (786-0): < 10%; inhibition at 10 µM (UACC-257): < 10%; inhibition at 10 µM (HL-60(TB)): < 10%; inhibition at 10 µM (OVCAR-8): < 10%; inhibition at 10 µM (MDA-MB-231): < 10%; melting point: 255 to 257 °C; inhibition at 10 µM (MDA-MB-468): < 10%; inhibition at 10 µM (MOLT-4): < 10%; inhibition at 10 µM (KM 12): < 10%; inhibition at 10 µM (OVCAR-5): < 10%; inhibition at 10 µM (OVCAR-3): < 10%; inhibition at 10 µM (NCI-H522): < 10%
2 | CCOC(=O)C1=C(N)N(c2ccccc2)C2=C(C(=O)CC(C)(C)C2)C1c1ccc([N+](=O)[O-])cc1 (racemic) [8i, (±)-Ethyl 2-amino-4–(4-nitrophenyl)-7,7-dimethyl-5-oxo-1-phenyl-1,4,5,6,7,8-hexahydroquinoline-3-carboxylate] | < 10 | < 10 | < 10 | 14 | - ((-) = GI % mean less than 10) | < 10 | < 10 | 32 | 14 | < 10 | < 10 | < 10 | < 10 | 12 | < 10 | < 10 | < 10 | < 10 | < 10 | < 10 | inhibition at 10 µM (MDA-MB-435): < 10%; inhibition at 10 µM (786-0): < 10%; inhibition at 10 µM (UACC-257): < 10%; inhibition at 10 µM (HL-60(TB)): < 10%; inhibition at 10 µM (OVCAR-8): < 10%; inhibition at 10 µM (MDA-MB-231): < 10%; melting point: 164 to 166 °C; inhibition at 10 µM (MDA-MB-468): < 10%; inhibition at 10 µM (MOLT-4): 22%; inhibition at 10 µM (KM 12): < 10%; inhibition at 10 µM (OVCAR-5): < 10%; inhibition at 10 µM (OVCAR-3): < 10%; inhibition at 10 µM (NCI-H522): 21%
